Values after ≈ are worked out from the molar mass of the structure shown. Where two headings read alike, the source gives them in different places. Marks after values point to notes of the source that are not given here.
Assays:
[1] = Dissociation constants by spectrophotometric titration; assay type: physicochemical; conditions: 20°C; for pKa: ultrapure water
Method: The spectrophotometric titration was used for dissociation constants’ determination, utilizing spectrophotometer Agilent Cary-60 (Agilent Technologies, CA, USA), pH meter WTW InoLab_IDS Multi 9430 (WTW, Czech Republic), and pH electrode SenTix® Mic (WTW, Czech Republic). Data were analyzed by GraphPadPrism 8.0 software (GraphPad Software, CA, USA). The analyzed samples were prepared by adding 20 μL of compound stock solution (2 mg/mL) and 20 μL of 0.1 M hydrochloric acid into the cuvette with ultrapure water (total volume 3.5 mL). The samples were titrated by 0.1 M sodium hydroxide at 20°C while acquiring absorption spectra (190–500 nm) at different pH values. Absorbance at the chosen wavelength was plotted as a function of pH. The inflection point in the given plot was used for pKa value determination.

[2] = Shake-flask partition coefficient logP and distribution coefficient logD (pH 7.4); assay type: physicochemical; conditions: for logD: n-octanol/sodium phosphate buffer pH 7.4; for logP: n-octanol/water
Method: Before the initiation of the intended experiments, all solvents were mutually saturated at 21°C. […] For saturation, large stock bottles containing n-octanol and 12% of water/buffer or water/buffer and 12% of n-octanol were shaken for 30 mins on a mechanical shaker and subsequently left to stand on the bench overnight until the phases separated. Approximately 0.50 mg of tested substance was added to the test vessels alongside with 1:1 volume ratio of saturated solvents (250 μL). The test vessels were shaken on the mechanical shaker (Multi Reax, Heidolph Instruments, Schwabach, Germany) for 30 min at the highest speed and then centrifuged for phase separation (16.873 × g for 5 min; Eppendorf 5418 Microcentrifuge, Prague, Czech Republic). Both organic and aqueous phases were sampled for LC-MS analysis. UHPLC-DAD-MS (UHPLC Infinity II 1290, detection by DAD and QqQ 6470; Agilent Technologies, CA, USA; separation on Arion C18 polar column 100 × 2.1 mm, 2.1 μm; Chromservis, Czech Republic) was used for determination of the exact concentration of tested substances. The total quantity of substance (in both phases) was used for logP/logD values calculation.

[3] = CNS MPO desirability score
Method: ACDLAbs PhysChem Suite 14.0 software (Advanced Chemistry Development, Inc., Toronto, ON, Canada) was used for the calculation of Mw, tPSA, and HBD values. The CNS MPO score calculation method was described by [Wager et al. (2016)].
Central nervous system multiparameter optimization desirability score was calculated as described by [Wager et al. (2016)], utilizing all collected experimental and calculated data. This scoring tool was set on ranges of desirable property space and linear transformational functions with values between 0 and 1 (defined as T0 for each property). Rating each parameter equally, the collective score ranges from 0 to 6, while a score higher than 4 is desirable ([Rankovic, 2015]).

[4] = Solubility by nephelometry (water, buffer pH 7.4); assay type: physicochemical; conditions: for solubility at 30 s: medium not told apart (water and buffer pH 7.4)
Method: Compounds’ solubility was measured by the NEPHELOstar microplate instrument (BMG Labtech, Offenburg, Germany). Stock solutions were prepared by dissolving the tested compounds in ultrapure water or sodium phosphate buffer (pH 7.4) to obtain a concentration of 160 and 1,000 μg/mL. Each stock solution was sonicated at full power by Hielscher UP100H needle ultrasonic processor (Teltow, Germany) before loading into NEPHELOstar instrument injector A. Ultrapure water or sodium phosphate buffer was loaded into injector B. Compound was diluted in 48 wells in 0–160 or 0–1,000 μg/mL range and subsequently shook for 30 s. Each well was scanned with 80% laser power in matrix 3 × 3, beam width 2 mm, and obtained data were evaluated in GraphPad Prism 7.03 (GraphPad Software, San Diego, CA, USA) using segmental linear regression.

[5] = system: BJ, RPE-1 and U373 cells; experiment: Crystal violet and resazurin proliferation screen in proliferating cells; assay type: cell-based, human; conditions: RPE-1, U373, 0, 10, 50, 80, 100 μM, 24 h
Method: All cell lines used in the study were obtained from the American Type Culture Collection (ATCC, Manassas, VA, USA). Human telomerase-immortalized retinal pigment epithelial cells RPE-1, glioblastoma U-87 MG, glioblastoma U373MG, glioblastoma T98G, glioblastoma A-172, breast adenocarcinoma MDA-MB-231, prostate carcinoma DU-145, and non-small cell lung cancer NCI-H1299 cell lines were cultured in Dulbecco’s modified Eagle’s medium (DMEM, Thermo Fisher Scientific, Waltham, MA, USA) with high glucose (4.5 g/L). Primary human skin BJ fibroblasts were cultured in Dulbecco’s modified Eagle’s medium (DMEM, Thermo Fisher Scientific, Waltham, MA, USA) with low glucose (1 g/L). Both cell culture media were supplemented with 10% fetal bovine serum (FBS, Gibco/Thermo Fisher Scientific) and non-essential amino acids (NEAA), 100 units/mL of penicillin, and 100 μg/mL of streptomycin (Sigma-Aldrich). Cells were kept at 37°C under a 5% CO2 atmosphere and 95% humidity.
(§1) Twenty-four hours before treatment, cells were plated in 96-well plates at densities of 2,850 cells per well for senescent RPE-1 (IR-RPE-1), 3,350 cells per well for proliferating RPE-1 and senescent BJ (DIS-BJ), and 5,000 cells per well for U373, T98, A172, U87, TMZ-U87, and proliferating BJ cells.
(§2) For the crystal violet assay, the cells were washed twice with 150 μL PBS and stained with 30 μL 0.5% (w/v) crystal violet in 20% methanol for 15 mins. Next, the plates were washed five times with ddH2O and left to dry overnight. Crystal violet was solubilized with 75 μL 0.2% Triton X-100 (Sigma) in PBS for 15 mins. The absorbance was read at 595 nm using a microplate reader (Envision, PerkinElmer, Waltham, MA, USA). The absorbance of crystal violet in treated cells was expressed as a percentage of absorbance in untreated cells. Each condition was measured at least in triplicate.
(§3) For the resazurin assay, 200 μL of the culture medium of each well was exchanged for 100 μL of resazurin (stock solution 30 mg/mL; Sigma, St. Louis, MO, USA) diluted 10 times in the culture medium, and the cells were incubated at 37°C for 1–3 h. Reading of fluorescence was done using a microplate reader (PerkinElmer, Waltham, MA, USA). Absolute values of fluorescence were related to the values of untreated cells. Each condition was measured at least in triplicate.

[6] = system: IR-induced senescent RPE-1 cells; experiment: Crystal violet and resazurin assays in IR-induced senescent RPE-1; assay type: cell-based, human; conditions: γ-irradiated RPE-1; crystal violet readout only
Method: To obtain ionizing radiation (IR)-induced senescent cells, proliferating RPE-1 cells were exposed to a single dose of X-rays (20 Gy) using Pantak HF160 (Gulmay, Surrey, UK) X-ray instrument equipped with Pantak Seifert HF320 generator, MXR-161 X-ray tube (Comet AG, Flamatt, Switzerland), and an aluminum filter using current 1–10 mA. After irradiation, the cells were cultured for an additional 7 days until the development of the senescent phenotype ([Salovska et al., 2022]). To induce docetaxel-induced senescence (DIS), BJ cells were exposed to 5 nM docetaxel for 7 days, as described previously ([Sapega et al., 2018]). To prepare temozolomide (TMZ)-induced senescence, U87 cells were exposed to 100 μM TMZ for 14 days.
as §1, §2
as §3, with “triplicate. […]” for “triplicate.”

[7] = system: RPE-1 cells; experiment: Time-lapse microscopy (Incucyte) of proliferating RPE-1; assay type: cell-based, human; conditions: higher concentrations 80–100 μM, 72 h
Method: (§4) For auto-monitoring of cells, Incucyte SX1 Live-Cell Analysis System (Sartorius, Göttingen, Germany), located in an incubator maintained at 37°C under a 5% CO2 atmosphere and 95% humidity, was utilized. The images (1,408 × 1,040 pixels at 1.24 microns/pixel) were acquired using a 10× objective lens in phase contrast, red fluorescence (excitation: 585 ± 20 nm, emission: 635 [625, 705] nm, acquisition time: 100 ms) channels every 60 min during 72 h. The first image was acquired 30 min after adding compounds. The images were processed to measure cell confluence using Incucyte software (version 2022A). Annexin V – Dy647, Apronex (diluted 1:1,000) was used for apoptotic cell staining.

[8] = system: U373 cells; experiment: Time-lapse microscopy (Incucyte) of U373; assay type: cell-based, human; conditions: 100 μM, 72 h
Method: as §4

[9] = from experimental and calculated data, method of Wager et al. (2016), scale 0-6
[10] = aqueous buffer, sodium phosphate buffer pH 7.4, nephelometry, read-out: Sol. (buffer 7.4)
[11] = ultrapure water, nephelometry, read-out: Sol. (H2O)
[12] = n-octanol/sodium phosphate buffer, pH 7.4, shake-flask, read-out: logD
[13] = sodium phosphate buffer pH 7.4, nephelometry

| SMILES | pKa ([1]; read-out: pKa1) | MPO (CNS MPO score) [3, 9] | solubility kinetic at 30 s [4, 10] [µg/mL] | solubility kinetic at 30 s [4, 11] [µg/mL] | logSH2O ([4]; water) | effect on the readout of crystal violet and resazurin assays [5] | melting point [°C] | logSpH 7.4 ([4]; buffer pH 7.4) | solubility at 30 s [4] [µg/mL] | logD [2, 12] | logP ([2]; shake-flask, read-out: logP) | further results |
| --- | --- | --- | --- | --- | --- | --- | --- | --- | --- | --- | --- | --- |
| c1ccc2[nH]c(NC3CCNCC3)nc2c1 [Compound 1, N-(piperidine-4-yl)-1H-benzo[d]imidazol-2-amine] | 6.18 ± 0.04 | 5.2 | > 160 | 33.3 (≈ 154 µM) | −3.81 | mild (although sometimes statistically significant) suppressive effect | 227 to 229 |  |  |  |  | logD ([2]; shake-flask): 0.85 ± 0.03; logP ([2]; shake-flask): 1.86 ± 0.07 |
| Br.Br.c1ccc2[nH]c(NC3CCNCC3)nc2c1 [Compound 2, N-(piperidin-4-yl)-1H-benzo[d]imidazol-2-amine dihydrobromide] |  | 4.9 | 299 | > 1000 | >−2.58 | mild (although sometimes statistically significant) suppressive effect | 275 to 277 | −3.10 | > 1000 |  |  | pKa1 [1]: 6.08 ± 0.08; logD ([2]; shake-flask): −0.89 ± 0.11; logP ([2]; shake-flask): −1.01 ± 0.01 |
| NC(=O)[C@@H]1CC[C@H](C(=O)O)N1 [Compound 4] | 3.17 ± 0.09 | 4.9 | > 1000 | > 1000 | >−2.20 | mild (although sometimes statistically significant) suppressive effect |  | >−2.20 | > 1000 | -2.82 ± 0.22 | -2.89 ± 0.16 | pKa ([1]; read-out: pKa2): 7.8 ± 0.11 |
| COc1ccc(CN2CCNC2=N)cc1OC [Compound 5] |  |  |  |  |  | no effect |  |  |  | -1.78 ± 0.08 | -1.79 ± 0.04 | MPO (CNS MPO score) ([3]; experimental pKa unknown: calculated with T0(pKa) equal to zero): 4.5^a; logSH2O ([4]; 30 s): >−3.36; logSpH 7.4 ([4]; 30 s, pH 7.4): >−3.36; solubility kinetic at 30 s ([4]; pH 7.4, aqueous buffer): > 160 µg/mL; solubility kinetic at 30 s ([4]; water): > 160 µg/mL; selectivity for senescent versus proliferating cells [6]: mild but selective effect |
| CN(C)c1cccc(-c2cccc(C(N)=O)c2)c1 [Compound 6, 3’-(Dimethylamino)-[1,1’-biphenyl]-3-carboxamide] | 4.8 ± 0.06 | 5 | < 6 | < 6 | <−4.60 | mild (although sometimes statistically significant) suppressive effect | 104 to 106 | <−4.60 |  | 2.91 ± 0.01 | 2.86 ± 0.01 | Sol. (buffer 7.4) [4, 13]: lower than 6 μg/mL; Sol. (H2O) ([4]; ultrapure water, nephelometry): lower than 6 μg/mL |
| O=C(O[C@@H]1Cc2c(O)cc(O)cc2O[C@@H]1c1ccc(O)c(O)c1)c1cc(O)c(O)c(O)c1 [Compound 7, epicatechin gallate] |  |  | > 1000 | 789 (≈ 1780 µM) | −2.75 | mild (although sometimes statistically significant) suppressive effect |  | >−2.65 | > 1000 | 1.52 ± 0.01 | 1.48 ± 0.03 | effect on cell proliferation (cell confluence, time-lapse) [7]: cytostatic effect; effect on cell proliferation (cell confluence, time-lapse) [8]: cytostatic effect |
| CO[C@H]1C[C@@H]2CC[C@@H](C)[C@@](O)(O2)C(=O)C(=O)N2CCCC[C@H]2C(=O)O[C@H]([C@H](C)C[C@@H]2CC[C@@H](O)[C@H](OC)C2)CC(=O)[C@H](C)/C=C(\C)[C@@H](O)[C@@H](OC)C(=O)[C@H](C)C[C@H](C)/C=C/C=C/C=C/1C [Rapamycin, rapamycin] | 10.7 ± 0.21 | 0.7 | < 6 | < 6 | <−5.18 |  |  | <−5.18 |  | 4.63 ± 0.04 | 3.97 ± 0.03 | logSpH 7.4 ([4]; buffer pH 7.4, listed as rapamycin): < −4.60; Sol. (buffer 7.4) [4, 13]: lower than 6 μg/mL; Sol. (H2O) ([4]; ultrapure water, nephelometry): lower than 6 μg/mL; logSH2O ([4]; water, listed as rapamycin): < −4.60 |

— PMC9767416, “Discovery of small molecule mechanistic target of rapamycin inhibitors as anti-aging and anti-cancer therapeutics” (Frontiers in Aging Neuroscience, 2022)
